Laboratory results: patent US20210393734A1, “THERAPEUTIC AGENT FOR ARTHRITIS” (OSAKA UNIVERSITY, priority 2018, published 2021)
“Also recorded” adds a separate entry of the source.

Key:
[1] = system: R3 cells (osteoclast precursor cells existing in an inflammatory synovial membrane); assay: Suppression of differentiation of R3 cells into osteoclasts (in vitro); assay type: cell-based, mouse; details: 10 ng/ml M-CSF, 100 ng/ml RANKL, 0.5, 1, or 2 μM thiostrepton, 96-well plate, FIG. 2
Text: FIG. 2 is figures showing the effect of thiostrepton on the osteoclast differentiation of R3s (in vitro). Photographs indicate that osteoclast differentiation is suppressed by thiostrepton administration (reds show osteoclasts, and greens show precursor cells).
A) CD45-positive cells of blood and a synovial membrane of a collagen-induced arthritis model mouse (CIA model) were selected by flow cytometry, and the cell fractions were identified with the fluorescence of CX3CR1-EGFP and Ly6C-APC. A CX3CR1lowLy6Chi fraction in blood was defined as R1, a CX3CR1lowLy6Chi fraction in an inflammatory synovial membrane was defined as R2, and a CX3CR1hiLy6Cint fraction was defined as R3 (FIG. 1A).

[2] = system: Collagen-induced arthritis (CIA) mice; assay: Effect in collagen-induced arthritis (CIA) model mouse (in vivo); set-up: species or system DBA-1/J mice; details: 20 mg/kg or 50 mg/kg intraperitoneally every other day from the twenty-first day, compared with the control group
Procedure: Collagen-induced arthritis (CIA) mice were divided into three groups, and 20 mg/kg or 50 mg/kg of thiostrepton or a base (contrast) was intraperitoneally administered every other day from the twenty-first day. Methods for producing and evaluating CIA mice are as follows.
Arthritis was caused using 8- to 10-week-old DBA-1/J mice. Chicken type II collagen was dissolved in a 0.05 M acetic acid solution and rotated at 4° C. all night to make a solution at a concentration of 4.0 mg/ml, and the solution was mixed with the same volume of Freund's complete adjuvant. On the first day, 100 μl of the emulsion was injected into the tail of each of the above-mentioned DBA-1/J mice for immunization, and the administration was repeated in the same way on the twenty-first day. The severity of arthritis was evaluated in accordance with a semi-quantitative score method which consists of an established 5-point scale. The scale is as follows: 0: no swelling, 1: slight swelling only in the heel or the tarsal bones, 2: slight swelling from the heel to the tarsal bones, 3: considerable swelling from the heel to the metatarsal articulation, and 4: severe swelling spreading over an area including the heel, the foot, and the toes. […]
Image analysis using micro-CT was performed. The osteoclastic score was determined with reference to previous study (refer to O'Brien, Arthritis Rheumatol. 2016).

[3] = system: CX3CR1-positive HLA-DRhi cells from synovial fluid and articulation tissue of a rheumatoid arthritis patient; assay: Osteoclast differentiation of CX3CR1-positive HLA-DRhi cells of a rheumatoid arthritis patient; assay type: cell-based; details: human RA patient cells, 50 ng/ml M-CSF, 100 ng/ml RANKL, 0.5 μM thiostrepton, 96-well plate; FIG. 5B
Procedure: The photographs indicate that the osteoclast differentiation is inhibited by thiostrepton administration.
When these cells were collected by flow cytometry and cultured on a 96-well plate with 50 ng/ml M-CSF, 100 ng/ml RANKL, and 0.5 μM thiostrepton added.

In the case of C=C(NC(=O)C(=C)NC(=O)c1csc(C2=N[C@@H]3c4csc(n4)[C@H]4NC(=O)c5csc(n5)[C@H]([C@](C)(O)[C@@H](C)O)NC(=O)[C@H]5CSC(=N5)/C(=C/C)NC(=O)[C@H]([C@@H](C)O)NC(=O)c5csc(n5)[C@]3(CC2)NC(=O)[C@H](C)NC(=O)C(=C)NC(=O)[C@H](C)NC(=O)[C@H]([C@@H](C)CC)N[C@@H]2C=Cc3c([C@H](C)O)cc(nc3[C@H]2O)C(=O)O[C@@H]4C)n1)C(N)=O [thiostrepton], the “capability to differentiate into osteoclasts (number of nuclei contained in osteoclasts in one visual field)” value [1] is reported as “remarkably suppressed”, the arthritis score ([2]; FIG. 3A) is reported as “decreased significantly” and the “osteoclastic score imaged by micro-CT (erosion score)” value ([2]; FIG. 3B) is reported as “decreased significantly”. For the same compound, the “differentiation into osteoclasts (number of nuclei contained in osteoclasts in one visual field)” value [3] was “inhibited; also recorded: significantly suppressed”.
